Source: patent US10954300B2, “Use of pentoxifylline with immune checkpoint-blockade therapies for the treatment of melanoma” (THE TRUSTEES OF COLUMBIA UNIVERSITY IN THE CITY OF NEW YORK, priority 2015, dated 2021)
Entries after “also recorded” stand apart in the source; their conditions may differ.

Assays:
c-Rel [1] = molecular target: T1, c-Rel (Homo sapiens, UniProt Q04864); details: cited from earlier work
T1 construct: host or cells: T cells
T1 sequence (Q04864 1-619): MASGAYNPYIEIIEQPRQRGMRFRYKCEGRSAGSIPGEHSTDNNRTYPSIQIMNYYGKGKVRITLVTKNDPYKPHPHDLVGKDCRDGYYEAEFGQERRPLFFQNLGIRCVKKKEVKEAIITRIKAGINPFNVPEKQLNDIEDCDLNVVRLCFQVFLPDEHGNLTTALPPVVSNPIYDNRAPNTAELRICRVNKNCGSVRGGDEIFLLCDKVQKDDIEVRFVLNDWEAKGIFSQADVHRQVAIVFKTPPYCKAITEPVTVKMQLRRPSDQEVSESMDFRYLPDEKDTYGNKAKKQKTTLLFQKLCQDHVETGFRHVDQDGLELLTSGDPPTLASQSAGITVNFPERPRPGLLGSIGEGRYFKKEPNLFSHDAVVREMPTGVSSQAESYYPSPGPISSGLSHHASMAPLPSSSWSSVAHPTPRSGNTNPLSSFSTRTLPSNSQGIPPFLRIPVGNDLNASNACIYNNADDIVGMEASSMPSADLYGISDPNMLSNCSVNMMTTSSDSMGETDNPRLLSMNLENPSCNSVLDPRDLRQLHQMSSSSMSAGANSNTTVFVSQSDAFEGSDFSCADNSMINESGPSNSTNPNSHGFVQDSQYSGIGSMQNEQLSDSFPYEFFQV

B16F1 melanoma cells [2] = assay: Flow cytometry of tumor infiltrates (TILs) at D16, early PTXF treatment; format: in vivo, C57Bl/6J mice
Description: Cells were isolated from thymus, spleen and lymph nodes by mechanical desegregation in PBS+ FBS 3%. For tumor-infiltrating cell suspensions, total tumors were digested in DMEM (Gibco) supplemented with 1 mg/ml collagenase type IV (Sigma) and 1 mg/ml DNase I (Sigma) for 40 minutes at 37° C., followed by centrifugation in a 36% Percoll solution. For intracellular cytokines analyses, cell suspensions were incubated 3 hours with PMA (Sigma, 50 ng/mL), ionoymycin (Sigma, 1 μg/mL) in the presence of Golgi Plug (BD), or incubated 4 hours with mitomycin C-treated WT splenocytes loaded with 10 mg/mL gp100/pmel 17 peptide (Neo Biolab) in the presence of Golgi Plug. Cells were then stained with mAbs purchased by eBioscience or Tonbo Bioscience. Foxp3 and cytokine staining were performed using the eBioscience kit and protocol. Cells were acquired on a LSR II (BD Biosciences) and analyzed with FlowJo (Tree Star) software.

c-Rel [3] = molecular target: T2, c-Rel (Mus musculus, UniProt P15307); assay: Western blot on PTXF-treated Treg cells; format: cell-based, mice; details: Treg cells stimulated with anti-CD3/CD28 and mIL-2, 500 μg/mL PTXF
T2 construct: CD4+GFP+ Treg cells were sorted form Foxp3eGFP spleens; endogenous in cells; host or cells: primary splenic CD4+Foxp3+ Treg cells from reporter mice
Description: Total cells suspensions were then activated with 5 μg/mL plate-coated anti-mCD3, 1 μg/ml soluble anti-mCD28 (BioLegend) and 10 ng/mL mIL-2, overnight at 37 C. Treg cells were then washed for further use.
Total lysates were extracted using RIPA buffer and protease inhibitors with SDS. 20 μg (micrograms) protein extracts were ran in polyacrylamide gels and transferred onto PVDF membranes. Membranes were incubated with anti-p65, c-Rel (Santa-Cruz) and GAPDH (Fitzgerald) Abs, followed HRP-coupled secondary Abs.

B16F1 melanoma cells [4] = assay: B16F1 melanoma growth, early treatment with PTXF or IT-603; format: in vivo, C57Bl/6 WT mice
Description: B16F1, B16F10 and CT-26 cells were obtained from the ATCC and grown in DMEM+10% FBS medium. BRAF^CAPten^−/− cells were originally derived from an in vivo melanoma induced by topical tamoxifen treatment of Ubc^cre-ERT2 BRAF^CA Pten^F/F, as described. All cell lines were periodically tested for murine pathogens. Cells were grown in DMEM supplemented with 10% FBS. When confluence reached 60-70%, cells were detached and washed in PBS1X. Fifty thousand cells diluted in 50 μL PBS1X were injected subcutaneously in the shaved abdomen of each mouse. Tumor growth was measured daily using a caliper.
Pentoxifylline (Sigma) powder was dissolved in PBS1X and sterile filtered prior to each injection. […] For the “curative” regimen, mice were treated daily from day 5-6 (when the tumor was visible and palpable) to day 11, following the same methods. IT-603 was reconstituted in DMSO and stored at −80° C. It then was diluted in PBS1X and sterile-filtered prior to each injection. […]
5×10^4 B16F1 or 5×10^5 CT-26 or BRAF^CAPten^−/− cells diluted in sterile PBS1X were injected subcutaneously into the shaved flank of each mouse. For metastasis experiments, 2.5×10^4 B16F10 cells were injected intravenously in the tail vein. […] Anti-PD-1 (RMP1-14), anti-PD-L1 (10F.9G2) and anti-CD8 (YTS.169-4) mAbs were obtained from BioXCell. Rat IgG isotype control was from R&D Systems. […] In FIG. 11A-11G, Balb/c mice harboring CT-26 tumors received a suboptimal dose of 100 μg of anti-PD-1.
C57BI/6 WT mice were injected subcutaneously with 5×10^4 B16F1 melanoma cells, and then injected with either PBS (control), pentoxifylline, or IT-603 (red arrows). Tumor growth was monitored daily.

p65 [5] = assay: Western blot on PTXF-treated Treg cells; format: cell-based, mice; details: Treg cells stimulated with anti-CD3/CD28 and mIL-2, 500 μg/mL PTXF
Description: Total cells suspensions were then activated with 5 μg/mL plate-coated anti-mCD3, 1 μg/ml soluble anti-mCD28 (BioLegend) and 10 ng/mL mIL-2, overnight at 37 C. Treg cells were then washed for further use. Total lysates were extracted using RIPA buffer and protease inhibitors with SDS. 20 μg (micrograms) protein extracts were ran in polyacrylamide gels and transferred onto PVDF membranes. Membranes were incubated with anti-p65, c-Rel (Santa-Cruz) and GAPDH (Fitzgerald) Abs, followed HRP-coupled secondary Abs.

p65 [6] = details: cited from earlier work

T2 sequence (P15307 whole entry): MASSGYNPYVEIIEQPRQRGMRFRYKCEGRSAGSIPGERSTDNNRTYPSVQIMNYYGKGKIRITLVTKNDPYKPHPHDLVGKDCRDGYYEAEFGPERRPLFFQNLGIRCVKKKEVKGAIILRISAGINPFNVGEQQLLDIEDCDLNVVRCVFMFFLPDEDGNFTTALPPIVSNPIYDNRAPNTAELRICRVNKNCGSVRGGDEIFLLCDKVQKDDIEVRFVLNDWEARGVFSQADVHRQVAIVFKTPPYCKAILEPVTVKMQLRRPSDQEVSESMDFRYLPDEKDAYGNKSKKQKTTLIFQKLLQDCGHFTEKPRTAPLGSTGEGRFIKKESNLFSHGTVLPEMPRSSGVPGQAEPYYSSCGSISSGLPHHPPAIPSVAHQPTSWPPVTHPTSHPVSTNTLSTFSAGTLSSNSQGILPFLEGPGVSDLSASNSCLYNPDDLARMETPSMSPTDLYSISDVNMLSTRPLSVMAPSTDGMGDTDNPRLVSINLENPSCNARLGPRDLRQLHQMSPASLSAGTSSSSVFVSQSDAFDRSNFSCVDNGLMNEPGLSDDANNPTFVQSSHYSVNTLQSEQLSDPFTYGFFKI

## CC(=O)CCCCn1c(=O)c2c(ncn2C)n(C)c1=O [PTXF, 1-(5-oxohexyl)-3,7-dimethylxanthine]
c-Rel [1]
  levels of c-Rel activation in T cells in vitro: reduces the levels of c-Rel activation
B16F1 melanoma cells [2]
  CD44 and Ki67 expression on CD4+ Tconv TILs: increased
  infiltration of total T cells and IFN-γ-producing CD4 and CD8 T-cells into the tumors: increase in infiltration
  proportion of Treg cells in tumor infiltrates: decrease in the proportion of Treg cells
c-Rel [3]
  c-Rel protein: significant reduction of c-Rel protein
B16F1 melanoma cells [4]; B16F1-bearing mice, 50 mg/kg PTXF
  size or composition of lymphoid tissues: No observable differences
B16F1 melanoma cells [4]; B16F1-bearing mice, 50 mg/kg PTXF, 50 mg/kg
  adverse events: no apparent adverse events; also recorded: No adverse effects of treatment were observed
B16F1 melanoma cells [4]; B16F1, daily injections of 50 mg/kg PTXF vs PBS
  pace of tumor growth: significant reduction in the pace of tumor growth
B16F1 melanoma cells [4]; B16F1 s.c., PTXF 50 mg/kg or IT-603 10 mg/kg on days 0, 2, 3, 4, 6 and 8, vs control vehicle
  tumor growth (tumor volume, monitored daily): significantly reduced growth of the tumors
p65 [5]
  levels of p65: unchanged
p65 [6]
  levels of p65 in T cells in vitro: unchanged
